From ChEMBL document CHEMBL1201862, “PubChem BioAssay data set” (2004)
Values joined by “and” are separate entries in the source; they are usually repeats but may differ in a detail not shown here. Equal entries are not always repeated.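 Results reflect a 48-hour exposure of cells in 96-well plates to compound at five concentrations. The concentration for 50% growth inhibition is given as GI50.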 Active and inactive are the calls of the source. No stated cut-off is given here; in the data, active = GI50 up to about 1.1 µM and inactive = higher.

Key:
Test in all cases: NCI tumour cell line growth inhibition, 48 h
786-0 = tested on: 786-0
A498 = tested on: A498
A549 = tested on: A549
ACHN = tested on: ACHN
BT-549 = tested on: BT-549
CAKI-1 = tested on: CAKI-1
CCRF-CEM = tested on: CCRF-CEM
COLO 205 = tested on: COLO 205
DU-145 = tested on: DU-145
EKVX = tested on: EKVX
HCC 2998 = tested on: HCC 2998
HCT-116 = tested on: HCT-116
HCT-15 = tested on: HCT-15
HL-60 = tested on: HL-60
HOP-62 = tested on: HOP-62
HOP-92 = tested on: HOP-92
HT-29 = tested on: HT-29
Hs-578T = tested on: Hs-578T
IGROV-1 = tested on: IGROV-1
K562 = tested on: K562
KM12 = tested on: KM12
LOX IMVI = tested on: LOX IMVI
M14 = tested on: M14
MCF7 = tested on: MCF7
MDA-MB-231 = tested on: MDA-MB-231
MDA-MB-435 = tested on: MDA-MB-435
MDA-N = tested on: MDA-N
MOLT-4 = tested on: MOLT-4
NCI-H226 = tested on: NCI-H226
NCI-H23 = tested on: NCI-H23
NCI-H460 = tested on: NCI-H460
NCI-H522 = tested on: NCI-H522
NCI/ADR-RES = tested on: NCI/ADR-RES
OVCAR-3 = tested on: OVCAR-3
OVCAR-4 = tested on: OVCAR-4
OVCAR-5 = tested on: OVCAR-5
OVCAR-8 = tested on: OVCAR-8
PC-3 = tested on: PC-3
RPMI-8226 = tested on: RPMI-8226
SF-268 = tested on: SF-268
SF-295 = tested on: SF-295
SF-539 = tested on: SF-539
SK-MEL-28 = tested on: SK-MEL-28
SK-MEL-2 = tested on: SK-MEL-2
SK-MEL-5 = tested on: SK-MEL-5
SK-OV-3 = tested on: SK-OV-3
SN12C = tested on: SN12C
SNB-19 = tested on: SNB-19
SNB-75 = tested on: SNB-75
SR = tested on: SR
SW-620 = tested on: SW-620
T47D = tested on: T47D
TK-10 = tested on: TK-10
U-251 = tested on: U-251
UACC-257 = tested on: UACC-257
UACC-62 = tested on: UACC-62
UO-31 = tested on: UO-31

`COc1cc([C@H]2OC[C@H]3[C@@H]2CO[C@@H]3c2cc(OC)c3c(c2)OCO3)cc(OC)c1OC` was tested, and the GI50 (786-0) was > 100 µM (inactive), the GI50 (A498) was > 100 µM (inactive) and the GI50 (A549) was 46 µM (inactive) and 55.2 µM (inactive). For the same compound, the GI50 (ACHN) was 39.1 µM (inactive), the GI50 (BT-549) was 31.6 µM (inactive) and 52.1 µM (inactive) and the GI50 (CAKI-1) was 52.7 µM (inactive) and 25 µM (inactive). The GI50 (CCRF-CEM) was 45.9 µM (inactive) and > 10 µM (inactive), the GI50 (COLO 205) was 48.3 µM (inactive) and 42.5 µM (inactive) and the GI50 (DU-145) was 81.3 µM (inactive). The GI50 (EKVX) was 39.4 µM (inactive) and 40.9 µM (inactive), the GI50 (HCC 2998) was 56 µM (inactive) and 27.9 µM (inactive) and the GI50 (HCT-116) was 41.6 µM (inactive) and 70.3 µM (inactive). For the same compound, the GI50 (HCT-15) was 34.4 µM and 39.8 µM, the GI50 (HL-60) was 40 µM (inactive) and > 10 µM (inactive) and the GI50 (HOP-62) was 55.6 µM (inactive). For the same compound, the GI50 (HOP-92) was 46.9 µM (inactive) and 60.7 µM (inactive), the GI50 (HT-29) was 37.3 µM (inactive) and 54.6 µM (inactive) and the GI50 (Hs-578T) was 51.3 µM (inactive) and 59.3 µM (inactive). For the same compound, the GI50 (IGROV-1) was 92.3 µM (inactive) and 66.4 µM (inactive), the GI50 (K562) was 39.4 µM (inactive) and 73.3 µM (inactive) and the GI50 (KM12) was 50.5 µM (inactive) and 95.1 µM (inactive). For the same compound, the GI50 (LOX IMVI) was 70.6 µM (inactive) and 96.8 µM (inactive), the GI50 (M14) was 65.3 µM (inactive) and the GI50 (MCF7) was 60.5 µM (inactive) and 50.5 µM (inactive). For the same compound, the GI50 (MDA-MB-231) was > 100 µM (inactive) and 50.4 µM (inactive), the GI50 (MDA-MB-435) was 76 µM (inactive) and the GI50 (MDA-N) was 65.2 µM (inactive). The GI50 (MOLT-4) was 12.9 µM (inactive) and > 10 µM (inactive), the GI50 (NCI-H226) was 43.5 µM (inactive) and 47.4 µM (inactive) and the GI50 (NCI-H23) was 37.4 µM (inactive) and 63 µM (inactive). For the same compound, the GI50 (NCI-H460) was 33.7 µM (inactive) and 33.9 µM (inactive), the GI50 (NCI-H522) was 32.7 µM (inactive) and 20.7 µM (inactive) and the GI50 (NCI/ADR-RES) was 23.4 µM (inactive) and 33.3 µM (inactive). The GI50 (OVCAR-3) was 87.1 µM (inactive), the GI50 (OVCAR-4) was 48.5 µM (inactive) and 43.7 µM (inactive) and the GI50 (OVCAR-5) was > 100 µM (inactive). The GI50 (OVCAR-8) was 31.3 µM (inactive) and 49.3 µM (inactive), the GI50 (PC-3) was 46.1 µM (inactive) and 51.6 µM (inactive) and the GI50 (RPMI-8226) was 28 µM (inactive) and 35 µM (inactive). For the same compound, the GI50 (SF-268) was 68.2 µM (inactive) and 59.2 µM (inactive), the GI50 (SF-295) was 48.1 µM (inactive) and 47.9 µM (inactive) and the GI50 (SF-539) was > 100 µM (inactive). The GI50 (SK-MEL-28) was > 100 µM (inactive), the GI50 (SK-MEL-2) was > 100 µM (inactive) and the GI50 (SK-MEL-5) was 19.2 µM (inactive) and 18.6 µM (inactive). For the same compound, the GI50 (SK-OV-3) was > 100 µM (inactive), the GI50 (SN12C) was 96.8 µM (inactive) and the GI50 (SNB-19) was 53.6 µM (inactive) and 43.8 µM (inactive). The GI50 (SNB-75) was 46.6 µM (inactive) and 84.5 µM (inactive), the GI50 (SR) was 17.3 µM (inactive) and 42.1 µM (inactive) and the GI50 (SW-620) was > 100 µM (inactive). For the same compound, the GI50 (T47D) was 34.2 µM (inactive) and 37.9 µM (inactive), the GI50 (TK-10) was > 100 µM (inactive) and the GI50 (U-251) was 83 µM (inactive) and 57.9 µM (inactive). The GI50 (UACC-257) was 79.4 µM (inactive) and 50.2 µM (inactive), the GI50 (UACC-62) was 39.9 µM (inactive) and 67.3 µM (inactive) and the GI50 (UO-31) was 44.6 µM (inactive) and 38.3 µM (inactive).
